Experimental data taken from US20110224210A1, “NOVEL BIS-AMIDES AS ANTI-MALARIAL AGENTS” (priority 2008, published 2011).

Tested on: P. falciparum K1 (strain resistant to chloroquine and pyrimethamine), erythrocytic stages
Experiment: Plasmodium falciparum in vitro assay, [3H] hypoxanthine incorporation
Assay type: cell-based
Settings: Plasmodium falciparum, K1, P. falciparum strain K1; [3H] hypoxanthine incorporation; read-out: IC50 (nM) on K1
Protocol: In Vitro Antimalarial Activity: Plasmodium falciparum In Vitro Assay
In vitro activity against erythrocytic stages of P. falciparum is determined using a [^3H] hypoxanthine incorporation assay. One strain resistant to chloroquine and pyrimethamine (P. falciparum K1) is used in the assays, and all test compounds are compared for activity with the standard drugs chloroquine (sigma C6628) and artemisinin (sigma-36, 159-3). Compounds are diluted in DMSO to 1 mM and added to parasite cultures incubated in RPMI 1640 medium without hypoxanthine, supplemented with HEPES (5.94 g/L), NaHCO3 (2.1 g/L), neomycin (100 U/mL), Albumax (5 g/L) and washed human red cells at 2.5% haematocrit (0.3% parasitaemia). Seven serial doubling dilutions of each compound are prepared in 96-well microtitre plates and incubated in a humidifying atmosphere at 37° C.; 4% CO2, 3% O2, 93% N2.
After 48 h, 50 μl of [3H] hypoxanthine (0.5 μCi) is added to each well of a plate. The plates are incubated for a further 24 h under the same conditions. The plates are then harvested with a Betaplate cell harvester (Wallac) and washed with distilled water. The dried filters are inserted into a plastic foil with 10 mL of scintillation fluid, and counted in a Betaplate liquid scintillation counter. IC50 values are calculated from sigmoidal inhibition curves using Microsoft Excel.

SMILES | IC50 [nM]
Cc1ccc(C=CC(=O)N(Cc2ccc(-c3ccccn3)cc2)[C@@H](Cc2ccccc2)C(=O)N2CCC(N(C)C)CC2)nc1 [Example 15, (S)-N-[1-Benzyl-2-(4-dimethylamino-piperidin-1-yl)-2-oxo-ethyl]-3-(5-methyl-pyridin-2-yl)-N-(4-pyridin-2-yl-benzyl)-acrylamide] | 163
COc1ccc(C=CC(=O)N(Cc2ccc(-c3ccccn3)cc2)[C@@H](Cc2ccccc2)C(=O)N2CCC(N(C)C)CC2)cn1 [Example 16, (S)-N-[1-Benzyl-2-(4-dimethylamino-piperidin-1-yl)-2-oxo-ethyl]-3-(6-methoxy-pyridin-3-yl)-N-(4-pyridin-2-yl-benzyl)-acrylamide] | 115
CN(C)C1CCN(C(=O)[C@H](Cc2ccccc2)N(Cc2ccc(-c3ccccn3)cc2)C(=O)C=Cc2ccc(C(F)(F)F)cn2)CC1 [Example 17, (S)-N-[1-Benzyl-2-(4-dimethylamino-piperidin-1-yl)-2-oxo-ethyl]-N-(4-pyridin-2-yl-benzyl)-3-(5-trifluoromethyl-pyridin-2-yl)-acrylamide] | 113
Cc1c(C=CC(=O)N(Cc2ccc(-c3ccccn3)cc2)[C@@H](Cc2ccccc2)C(=O)N2CCC(N(C)C)CC2)cnn1C [Example 18, (S)-N-[1-Benzyl-2-(4-dimethylamino-piperidin-1-yl)-2-oxo-ethyl]-3-(1,5-dimethyl-1H-pyrazol-4-yl)-N-(4-pyridin-2-yl-benzyl)-acrylamide] | 273
CN(C)C1CCN(C(=O)[C@H](Cc2ccccc2)N(Cc2ccc(-c3ccncc3)cc2)C(=O)C=Cc2ccn(C)n2)CC1 [Example 19, (S)-N-[1-Benzyl-2-(4-dimethylamino-piperidin-1-yl)-2-oxo-ethyl]-3-(1-methyl-1H-pyrazol-3-yl)-N-(4-pyridin-4-yl-benzyl)-acrylamide] | 250
Cc1cc(C=CC(=O)N(Cc2ccc(-c3ccncc3)cc2)[C@@H](Cc2ccccc2)C(=O)N2CCC(N(C)C)CC2)n(C)n1 [Example 20, (S)-N-[1-Benzyl-2-(4-dimethylamino-piperidin-1-yl)-2-oxo-ethyl]-3-(2,5-dimethyl-2H-pyrazol-3-yl)-N-(4-pyridin-4-yl-benzyl)-acrylamide] | 116
Cc1nn(C)c(C)c1C=CC(=O)N(Cc1ccc(-c2ccncc2)cc1)[C@@H](Cc1ccccc1)C(=O)N1CCC(N(C)C)CC1 [Example 21, (S)-N-[1-Benzyl-2-(4-dimethylamino-piperidin-1-yl)-2-oxo-ethyl]-N-(4-pyridin-4-yl-benzyl)-3-(1,3,5-trimethyl-1H-pyrazol-4-yl)-acrylamide] | 14
Cc1nc(C)c(C=CC(=O)N(Cc2ccc(-c3ccncc3)cc2)[C@@H](Cc2ccccc2)C(=O)N2CCC(N(C)C)CC2)s1 [Example 22, (S)-N-[1-Benzyl-2-(4-dimethylamino-piperidin-1-yl)-2-oxo-ethyl]-3-(2,4-dimethyl-thiazol-5-yl)-N-(4-pyridin-4-yl-benzyl)-acrylamide] | 60
Cc1nc(C=CC(=O)N(Cc2ccc(-c3ccncc3)cc2)[C@@H](Cc2ccccc2)C(=O)N2CCC(N(C)C)CC2)cs1 [Example 23, (S)-N-[1-Benzyl-2-(4-dimethylamino-piperidin-1-yl)-2-oxo-ethyl]-3-(2-methyl-thiazol-4-yl)-N-(4-pyridin-4-yl-benzyl)-acrylamide] | 141
Cc1noc(C)c1C=CC(=O)N(Cc1ccc(-c2ccncc2)cc1)[C@@H](Cc1ccccc1)C(=O)N1CCC(N(C)C)CC1 [Example 24, (S)-N-[1-Benzyl-2-(4-dimethylamino-piperidin-1-yl)-2-oxo-ethyl]-3-(3,5-dimethyl-isoxazol-4-yl)-N-(4-pyridin-4-yl-benzyl)-acrylamide] | 103
Cc1nc(C=CC(=O)N(Cc2ccc(-c3ccncc3)cc2)[C@@H](Cc2ccccc2)C(=O)N2CCC(N(C)C)CC2)c(C)o1 [Example 25, (S)-N-[1-Benzyl-2-(4-dimethylamino-piperidin-1-yl)-2-oxo-ethyl]-3-(2,5-dimethyl-oxazol-4-yl)-N-(4-pyridin-4-yl-benzyl)-acrylamide] | 90
COc1ccc(C=CC(=O)N(Cc2ccc(-c3ccncc3)cc2)[C@@H](Cc2ccccc2)C(=O)N2CCC(N(C)C)CC2)nn1 [Example 26, (S)-N-[1-Benzyl-2-(4-dimethylamino-piperidin-1-yl)-2-oxo-ethyl]-3-(6-methoxy-pyridazin-3-yl)-N-(4-pyridin-4-yl-benzyl)-acrylamide] | 465
Cc1ccc(C=CC(=O)N(Cc2ccc(-c3ccncc3)cc2)[C@@H](Cc2ccccc2)C(=O)N2CCC(N(C)C)CC2)cn1 [Example 27, (S)-N-[1-Benzyl-2-(4-dimethylamino-piperidin-1-yl)-2-oxo-ethyl]-3-(6-methyl-pyridin-3-yl)-N-(4-pyridin-4-yl-benzyl)-acrylamide] | 67
Cc1ccc(C=CC(=O)N(Cc2ccc(-c3ccncc3)cc2)[C@@H](Cc2ccccc2)C(=O)N2CCC(N(C)C)CC2)nc1 [Example 28, (S)-N-[1-Benzyl-2-(4-dimethylamino-piperidin-1-yl)-2-oxo-ethyl]-3-(5-methyl-pyridin-2-yl)-N-(4-pyridin-4-yl-benzyl)-acrylamide] | 81
COc1ccc(C=CC(=O)N(Cc2ccc(-c3ccncc3)cc2)[C@@H](Cc2ccccc2)C(=O)N2CCC(N(C)C)CC2)cn1 [Example 29, (S)-N-[1-Benzyl-2-(4-dimethylamino-piperidin-1-yl)-2-oxo-ethyl]-3-(6-methoxy-pyridin-3-yl)-N-(4-pyridin-4-yl-benzyl)-acrylamide] | 34
CN(C)C1CCN(C(=O)[C@H](Cc2ccccc2)N(Cc2ccc(-c3ccncc3)cc2)C(=O)C=Cc2ccc(C(F)(F)F)cn2)CC1 [Example 30, (S)-N-[1-Benzyl-2-(4-dimethylamino-piperidin-1-yl)-2-oxo-ethyl]-N-(4-pyridin-4-yl-benzyl)-3-(5-trifluoromethyl-pyridin-2-yl)-acrylamide] | 34
Cc1c(C=CC(=O)N(Cc2ccc(-c3ccncc3)cc2)[C@@H](Cc2ccccc2)C(=O)N2CCC(N(C)C)CC2)cnn1C [Example 31, (S)-N-[1-Benzyl-2-(4-dimethylamino-piperidin-1-yl)-2-oxo-ethyl]-3-(1,5-dimethyl-1H-pyrazol-4-yl)-N-(4-pyridin-4-yl-benzyl)-acrylamide] | 54
COc1ncc(C=CC(=O)N(Cc2ccc(-c3ccncc3)cc2)[C@@H](Cc2ccccc2)C(=O)N2CCC(N(C)C)CC2)cn1 [Example 32, (S)-N-[1-Benzyl-2-(4-dimethylamino-piperidin-1-yl)-2-oxo-ethyl]-3-(2-methoxy-pyrimidin-5-yl)-N-(4-pyridin-4-yl-benzyl)-acrylamide] | 298
CC(=O)N1CCN(c2ccc(CN(C(=O)C=Cc3c(C)nn(C)c3C)[C@@H](Cc3ccccc3)C(=O)N3CCC(N(C)C)CC3)cc2)CC1 [Example 33, (S)-N-[4-(4-Acetyl-piperazin-1-yl)-benzyl]-N-[1-benzyl-2-(4-dimethylamino-piperidin-1-yl)-2-oxo-ethyl]-3-(1,3,5-trimethyl-1H-pyrazol-4-yl)-acrylamide] | 319
COc1ccc(C=CC(=O)N(Cc2ccc(N3CCN(C(C)=O)CC3)cc2)[C@@H](Cc2ccccc2)C(=O)N2CCC(N(C)C)CC2)cn1 [Example 34, (S)-N-[4-(4-Acetyl-piperazin-1-yl)-benzyl]-N-[1-benzyl-2-(4-dimethylamino-piperidin-1-yl)-2-oxo-ethyl]-3-(6-methoxy-pyridin-3-yl)-acrylamide] | 433
CC(=O)N1CCN(c2ccc(CN(C(=O)C=Cc3ccc(C(F)(F)F)cn3)[C@@H](Cc3ccccc3)C(=O)N3CCC(N(C)C)CC3)cc2)CC1 [Example 35, (S)-N-[4-(4-Acetyl-piperazin-1-yl)-benzyl]-N-[1-benzyl-2-(4-dimethylamino-piperidin-1-yl)-2-oxo-ethyl]-3-(5-trifluoromethyl-pyridin-2-yl)-acrylamide] | 317
Cc1nn(C)c(C)c1C=CC(=O)N(Cc1ccc(-c2cncnc2)cc1)[C@@H](Cc1ccccc1)C(=O)N1CCC(N(C)C)CC1 [Example 36, (S)-N-[1-Benzyl-2-(4-dimethylamino-piperidin-1-yl)-2-oxo-ethyl]-N-(4-pyrimidin-5-yl-benzyl)-3-(1,3,5-trimethyl-1H-pyrazol-4-yl)-acrylamide] | 173
Cc1nc(C)c(C=CC(=O)N(Cc2ccc(-c3cncnc3)cc2)[C@@H](Cc2ccccc2)C(=O)N2CCC(N(C)C)CC2)s1 [Example 37, (S)-N-[1-Benzyl-2-(4-dimethylamino-piperidin-1-yl)-2-oxo-ethyl]-3-(2,4-dimethyl-thiazol-5-yl)-N-(4-pyrimidin-5-yl-benzyl)-acrylamide] | 279
Cc1noc(C)c1C=CC(=O)N(Cc1ccc(-c2cncnc2)cc1)[C@@H](Cc1ccccc1)C(=O)N1CCC(N(C)C)CC1 [Example 38, (S)-N-[1-Benzyl-2-(4-dimethylamino-piperidin-1-yl)-2-oxo-ethyl]-3-(3,5-dimethyl-isoxazol-4-yl)-N-(4-pyrimidin-5-yl-benzyl)-acrylamide] | 417
CN(C)C1CCN(C(=O)[C@H](Cc2ccccc2)N(Cc2ccc(-c3cncnc3)cc2)C(=O)C=Cc2ccc(Cl)cn2)CC1 [Example 39, (S)-N-[1-Benzyl-2-(4-dimethylamino-piperidin-1-yl)-2-oxo-ethyl]-3-(5-chloro-pyridin-2-yl)-N-(4-pyrimidin-5-yl-benzyl)-acrylamide] | 170
